US6414037B1 (Pharmascience, priority 1998, dated 2002)

System: C3H/10T1/2 clone 8 cells
Assay: Two-stage transformation assay in C3H10T1/2 cells
Assay type: cell-based, mouse
Conditions: DMBA (0.25 μg/ml), TPA (0.1 μg/ml)
Method: This 10T1/2 cell line of mouse embryo fibroblasts has been widely used as an experimental system to study neoplastic transformation induced by a variety of agents, such as polycyclic hydrocarbons, methylating agents, and X-rays. Two-stage transformation assays, with 3-methylcholanthrene (MCA) or DMBA as inducer and TPA as promoter, were performed in these tests.
C3H10T1/2 Cl 8 cells were purchased from the American Type Culture Collection (ATCC CCL 226, Rockville, Md.) and maintained in Eagle's basal medium with Earle's salts (EBME) containing 10% (v/v) fetal bovine serum (FBS, Gibco Laboratories, Chagrin Falls, Ohio) without antibiotics, and sodium bicarbonate (2.2 gl). Cells were seeded at 5×10^4 per 75 cm^2 flask and grown in a humidified incubator containing 5% carbon dioxide in air at 37° C. Cells used in all these experiments were passage between 10-13.
Two-stage transformation assays in C3H10T1/2 cells were performed according to a procedure modified from that described in Mondal et al. (1976) Cancer Res. 36:2254-2260. One thousand cells obtained from freshly confluent flasks were seeded per well in 12-well plate containing 2 ml of medium (12 wells per experimental point). After incubation at 37° C. for three days, MCA or DMBA (2 mg/ml stock solution in DMSO) was added to give final concentrations of 0.25 μg/ml. Carcinogen-containing medium was removed from the growing cultures after 24 hours and cells were rinsed once with PBS before addition of fresh EBME supplemented with 10% FBS and gentamycin (25 μg/ml). […] TPA and test compounds were added to the medium each time the medium was changed. Medium was changed on all plates twice weekly. After confluency was reached, the FBS concentration was reduced to 5% and amphotericin B (fungizone, 1.5 μg/ml) was added to the medium (see Reznikoff et al. (1973) Cancer Res. 33:3239-3249 and Bertram (1979) Cancer Lett. 7:289-298). Subsequent medium changes were performed weekly. Cultures were fixed with methanol and stained with Giemsa at the seventh week. Type II and III transformed foci were scored according to the teachings of Landolph “Transformation Assay of Established Cell Lines: Mechanism and Application,” Eds. Kakunaga et al. (Toronto: Oxford University Press, 1985), at pp. 185-199.

[1] = all-trans-retinyl acetate (0.3 μg/ml)

Structure (SMILES)	No. of wells foci/total no. of wells [1]	Total No. of foci/no. wells scored [1]	Total No. type II [1]	Total No. type III [1]	Wells with foci (%) [1]	No. of wells foci/total no. of wells (aspirin 200 μM)	Total No. of foci/no. wells scored (aspirin 200 μM)	Total No. type II (aspirin 200 μM)	Total No. type III (aspirin 200 μM)	Wells with foci (%) (aspirin 200 μM)
CC(=O)OC/C=C(C)/C=C/C=C(C)/C=C/C1=C(C)CCCC1(C)C [all-trans-retinyl acetate]	0/12	0/12	0	0	0%					
CC(=O)Oc1ccccc1C(=O)O [aspirin]						0/12	0/12	0	0	0%
